In patent publication US6825350B2, “Sulfonamide and sulfamide substituted imidazoquinolines and methods for the treatment of periodontal disease using these and other immune response modifiers” (3M Innovative Properties Company, priority 1999, dated 2004):
Counter-ions that a name gives are not always drawn. Like-named read-outs stand apart in the source and are kept apart here.

Key:
[1] = system: interferon (α); experiment: Cytokine induction in human cells: interferon (α) by ELISA; type: cell-based; settings: human PBMCs, 18 to 24 hours incubation, ELISA of culture supernatant, read-out: Lowest Effective Concentration (μM) Interferon
[2] = system: tumor necrosis factor (α); experiment: Cytokine induction in human cells: tumor necrosis factor (α) by ELISA; type: cell-based; settings: Homo sapiens, PBMC, human PBMCs, 18 to 24 hours incubation, ELISA of culture supernatant; read-out: Lowest Effective Concentration (μM) Tumor Necrosis Factor

| Structure (SMILES) | melting point | minimal effective concentration [1] | minimal effective concentration [2] | minimal effective concentration ([1]; Homo sapiens, PBMC) |
| --- | --- | --- | --- | --- |
| CCCCc1nc2c(N)nc3ccccc3c2n1CCCCNS(=O)(=O)c1ccc(N)cc1 (as salt: hydrochloride) | 203.1 to 205 °C |  |  |  |
| CCCCc1nc2c(N)nc3ccccc3c2n1CCCCNS(=O)(=O)c1cccc(N)c1 (as salt: hydrochloride) | 110.2 °C (dec.) |  |  |  |
| CCCCc1nc2c(N)nc3ccccc3c2n1CCCCNS(=O)(=O)c1cccc([N+](=O)[O-])c1 (as salt: hydrochloride) [Example 7, N^1-[4-(4-Amino-2-butyl-1H-imidazo[4,5-c]quinolin-1-yl)butyl]-3-nitro-1-benzenesulfonamide Hydrochloride] | 176 to 178.2 °C |  |  |  |
| CCCCc1nc2c(N)nc3ccccc3c2n1CCCCNS(=O)(=O)c1ccc([N+](=O)[O-])cc1 (as salt: hydrochloride) [Example 9, N^1-[4-(4-Amino-2-butyl-1H-imidazo[4,5-c]quinolin-1-yl)butyl]-4-nitro-1-benzenesulfonamide Hydrochloride] | 96 °C (dec.) |  |  |  |
| CCCCc1nc2c(N)nc3ccccc3c2n1CCCCNS(=O)(=O)c1cccs1 [Example 3, N^2-[4-(4-Amino-2-butyl-1H-imidazo[4,5-c]quinolin-1-yl)butyl]-2-thiophenesulfonamide] | 137.5 to 141.5 °C | 0.01 µM |  |  |
| CCCCc1nc2c(N)nc3ccccc3c2n1CCCCNS(=O)(=O)Cc1ccccc1 [Example 4, N-[4-(4-Amino-2-butyl-1H-imidazo[4,5-c]quinolin-1-yl)butyl]phenylmethanesulfonainide] | 197 to 199.5 °C |  |  |  |
| CCCCc1nc2c(N)nc3ccccc3c2n1CCCCNS(=O)(=O)c1ccccc1 [Example 5, N^1-[4-(4-Amino-2-butyl-1H-imidazo [4,5-c]quinolin-1-yl)butyl]-1-benzenesulfonamide] | 75.5 to 79 °C |  |  |  |
| COc1ccc(Cc2nc3c(N)nc4ccccc4c3n2CCCCNS(C)(=O)=O)cc1 [Example 12, N-[4-(4-Amino-2-(4-methoxybenzyl)-1H-imidazo[4,5-c]quinolin-1-yl]butyl]methanesulfonamide] | 78.1 to 79.5 °C |  |  |  |
| COCCc1nc2c(N)nc3c(c2n1CCCCNS(=O)(=O)c1ccc(F)cc1)CCCC3 [Example 14, N^1-{4-[4-Amino-2-(2-methoxyethyl)-6,7,8,9-tetrahydro-1H-imidazo[4,5-c]quinolin-1-yl]butyl}-4-fluoro-1-benzenesulfonamide] | 191 to 193 °C |  |  |  |
| Nc1nc2ccccc2c2c1nc(-c1ccccc1)n2CCCCNS(=O)(=O)c1ccc(F)cc1 [Example 15, N-[4-(4-Amino-2-phenyl-1H-imidazo[4,5-c]quinolin-1-yl)butyl]-4-fluoro-1-benzenesulfonamide] | 214 to 216 °C |  |  |  |
| CS(=O)(=O)NCCCCn1c(-c2ccccc2)nc2c(N)nc3ccccc3c21 [Example 16, N-[4-(4-Amino-2-phenyl-1H-imidazo[4,5-c]quinolin-1-yl)butyl]methanesulfonamide] | 234 to 235 °C |  |  |  |
| COCCc1nc2c(N)nc3ccccc3c2n1CCCCNS(=O)(=O)c1cccc(F)c1 [Example 122] |  |  | 1 µM | 0.0001 µM |
| COCCc1nc2c(N)nc3ccccc3c2n1CCCCNS(=O)(=O)c1c(C)noc1C [Example 123] |  |  | 10 µM | 0.0001 µM |
| COCCc1nc2c(N)nc3ccccc3c2n1CCCCNS(=O)(=O)c1ccccc1Cl [Example 127] |  |  | 10 µM | 0.0001 µM |
| COCCc1nc2c(N)nc3ccccc3c2n1CCCCNS(=O)(=O)c1ccc(Cl)cc1 [Example 128] |  |  | 1 µM | 0.0001 µM |
| COCCc1nc2c(N)nc3ccccc3c2n1CCCCNS(=O)(=O)c1ccc(Cl)s1 [Example 131] |  |  | 1 µM | 0.0001 µM |
| COCCc1nc2c(N)nc3ccccc3c2n1CCCCNS(=O)(=O)Cc1ccccc1[N+](=O)[O-] [Example 138] |  |  | 10 µM | 0.0001 µM |
| COCCc1nc2c(N)nc3ccccc3c2n1CCCCNS(=O)(=O)C[C@]12CCC(CC1=O)C2(C)C [Example 148] |  |  | 1 µM | 0.0001 µM |
| COCCc1nc2c(N)nc3ccccc3c2n1CCCCNS(=O)(=O)c1ccc(Br)cc1 [Example 152] |  |  | 10 µM | 0.0001 µM |
| COCCc1nc2c(N)nc3ccccc3c2n1CCCCNS(=O)(=O)c1ccc(OC(F)(F)F)cc1 [Example 154] |  |  | 10 µM | 0.001 µM |
| COCCc1nc2c(N)nc3ccccc3c2n1CCCCNS(=O)(=O)c1ccccc1 [Example 158] |  |  | 1 µM | 0.0001 µM |
| COCCc1nc2c(N)nc3ccccc3c2n1CCCCNS(=O)(=O)c1ccc(C)cc1 [Example 159] |  |  | 0.1 µM | 0.0001 µM |
| COCCc1nc2c(N)nc3ccccc3c2n1CCCCNS(=O)(=O)c1ccc(C#N)cc1 [Example 160] |  |  | 1 µM | 0.001 µM |
| COCCc1nc2c(N)nc3ccccc3c2n1CCCCNS(=O)(=O)c1ccc(S(C)(=O)=O)cc1 [Example 161] |  |  | 10 µM | 0.01 µM |
| COCCc1nc2c(N)nc3ccccc3c2n1CCCCNS(=O)(=O)c1cccc(Br)c1 [Example 184] |  |  | 1 µM | 0.0001 µM |

| Structure (SMILES) | melting point | minimal effective concentration [1] | minimal effective concentration [2] | minimal effective concentration ([1]; Homo sapiens, PBMC) |
| --- | --- | --- | --- | --- |
| COCCc1nc2c(N)nc3ccccc3c2n1CCCCNS(=O)(=O)C[C@@]12CCC(CC1=O)C2(C)C [Example 200] |  |  | 0.1 µM | 0.01 µM |
| CCCCc1nc2c(N)nc3c(c2n1CCCCNS(C)(=O)=O)CCCC3 [Example 202] |  |  | 1 µM | 0.0001 µM |
| CCCCc1nc2c(N)nc3c(c2n1CCCCNS(=O)(=O)C(C)C)CCCC3 [Example 203] |  |  | 1 µM | 0.0001 µM |
| CCCCc1nc2c(N)nc3c(c2n1CCCCNS(=O)(=O)c1cccs1)CCCC3 [Example 204] |  |  | 1 µM | 0.0001 µM |
| CCCCc1nc2c(N)nc3c(c2n1CCCCNS(=O)(=O)Cc1ccccc1)CCCC3 [Example 205] |  |  | 1 µM | 0.0001 µM |
| CCCCc1nc2c(N)nc3c(c2n1CCCCNS(=O)(=O)c1cccc2c(N(C)C)cccc12)CCCC3 [Example 206] |  |  | > 10 µM | 1 µM |
| CCS(=O)(=O)NCCCCn1c(CCOC)nc2c(N)nc3c(c21)CCCC3 [Example 207] |  |  | 1 µM | 0.001 µM |
| CCCS(=O)(=O)NCCCCn1c(CCOC)nc2c(N)nc3c(c21)CCCC3 [Example 208] |  |  | 1 µM | 0.0001 µM |
| CCCCS(=O)(=O)NCCCCn1c(CCOC)nc2c(N)nc3c(c21)CCCC3 [Example 209] |  |  | 0.1 µM | 0.0001 µM |
| COCCc1nc2c(N)nc3c(c2n1CCCCNS(=O)(=O)c1ccccc1)CCCC3 [Example 210] |  |  | 1 µM | 0.0001 µM |
| COCCc1nc2c(N)nc3c(c2n1CCCCNS(=O)(=O)Cc1ccccc1)CCCC3 [Example 211] |  |  | 1 µM | 0.0001 µM |
| COCCc1nc2c(N)nc3c(c2n1CCCCNS(=O)(=O)C[C@@]12CCC(CC1=O)C2(C)C)CCCC3 [Example 212] |  |  | 0.01 µM | 0.0001 µM |
| COCCc1nc2c(N)nc3c(c2n1CCCCNS(=O)(=O)c1cccc2c(N(C)C)cccc12)CCCC3 [Example 213] |  |  | 1 µM | 0.0001 µM |
| COCCc1nc2c(N)nc3ccccc3c2n1CCCCN(C)S(=O)(=O)c1c(C)noc1C [Example 215, N-[4-(4-Amino-2-(2-methoxyethyl)-1H-imidazo[4,5-c]quinolin-1-yl)butyl]-N-methyl-3,5-dimethylisooxazolo-4-sulfonamide Trifluoroacetate] |  |  | 1 µM | 0.01 µM |
| CCOCc1nc2c(N)nc3ccccc3c2n1CCNS(=O)(=O)N(C)C [Example 217] |  |  | > 10 µM | 1 µM |
| COCCc1nc2c(N)nc3ccccc3c2n1CCCCNS(=O)(=O)N(C)C [Example 218] |  |  | 1 µM | 0.0001 µM |
| CCCCc1nc2c(N)nc3c(c2n1CCCCNS(=O)(=O)N(C)C)CCCC3 [Example 220] |  |  | 1 µM | 0.0001 µM |
| COCCc1nc2c(N)nc3c(c2n1CCCCNS(=O)(=O)N(C)C)CCCC3 [Example 221] |  |  | 1 µM | 0.0001 µM |
| COCCc1nc2c(N)nc3ccccc3c2n1CCCCNS(=O)(=O)Nc1ccccc1 [Example 224] |  |  | 10 µM | 0.0001 µM |
| COCCc1nc2c(N)nc3ccccc3c2n1CCCCNS(=O)(=O)N[C@H](C)c1ccccc1 [Example 226] |  |  | 0.1 µM | 0.0001 µM |
| CCOC(=O)C1CCN(S(=O)(=O)NCCCCn2c(CCOC)nc3c(N)nc4ccccc4c32)CC1 [Example 227] |  |  | > 10 µM | 0.001 µM |
| COCCc1nc2c(N)nc3ccccc3c2n1CCCCNS(=O)(=O)N1CCCC1 [Example 229] |  |  | 0.1 µM | 0.0001 µM |
| COCCc1nc2c(N)nc3ccccc3c2n1CCCCNS(=O)(=O)NC(C)(C)C [Example 230] |  |  | 1 µM | 0.0001 µM |
| COCCc1nc2c(N)nc3ccccc3c2n1CCCCNS(=O)(=O)NCc1ccccc1 [Example 231] |  |  | 1 µM | 0.0001 µM |
